Experimental data reported in patent publication US8492441B2, “Dosage regimen of an S1P receptor agonist” (Novartis AG, priority 2008, dated 2013).
Blank lines part the entries; values can stand above or below the molecule they belong to.

Assays:
[1] = test system: healthy subjects; experiment: Absolute lymphocyte count after multiple daily doses (FIG. 2); assay type: in vivo, human
Source text: Preferred medications comprise medication for patients suffering from chronic longterm diseases, such as autoimmune diseases, e.g. multiple sclerosis, Polymyositis, lupus nephritis, rheumatoid arthritis, inflammatory bowel diseases or psoriasis. In an embodiment of the invention, medications are medications for patients suffering from multiple sclerosis, for example relapse remitting multiple sclerosis (RRMS) or primary progressive multiple sclerosis (PPMS), e.g. for patients suffering from RRMS.

[2] = test system: subjects; experiment: Example 1 dose titration study: Holter monitoring of ectopies (SVEs, VEs) and pauses >2 secs; assay type: in vivo, human; conditions: for subjects with total number of SVEs 0-10 / subjects with total number of SVEs 11-20 / subjects with total number of SVEs 21-50 / subjects with total number of SVEs >50 / subjects with total number of VEs 0-5 / subjects with total number of VEs 6-10 / subjects with total number of VEs 11-30 / subjects with total number of VEs >30 / subjects with total number of pauses >2 secs: 0 / subjects with total number of pauses >2 secs: 1 / subjects with total number of pauses >2 secs: >1: any time during the 12-day treatment period
Procedure: (§1) Increasing doses of Compound A starting at 0.25 mg o.d. and ending at the maximal therapeutic dose of 10 mg o.d. are given to 28 subjects over 12 days as specified in Table 1 below. A placebo group and a positive control group receiving the 10 mg final therapeutic dose are also included in the study (each of 14 subjects).
Pharmacodynamic and safety assessments are performed up to 24 hours post last dose. Heart rhythm is assessed via 24 hr continuous holter monitoring on Day −1, Day 1, Day 11 and Day 12. For each dosing for each subject, the drug is administered as closely as practically possible to the time administered on Day −1. Safety assessments includes physical examinations, vital signs and body measurements, 12-lead ECG evaluations, standard clinical laboratory evaluations hematology, blood chemistry, urinalysis, adverse event and serious adverse event monitoring.
24-hour continuous Holter-ECG data are captured via a digital Holter monitor (12-lead, on Days […]), and transferred for interpretation and reporting. Holter monitoring starts approximately at 7:00 and the time of dose administration is regarded as the time “0 hours”. Holter “cuts” are derived from the dataset at 1 hour intervals starting from Day −1 and continuing for 24 hours or the end of the cleaned Holter monitoring dataset.
(§2) Cardiac conduction intervals: arrhythmia monitoring includes the frequency and duration of sinus pauses (>2 sec and >3 sec) and atrio-ventricular blocks. Frequency and duration of atrial and ventricular ectopy and sinus rhythm are also recorded. The daily chronotropic effect is defined as the percent decrease in HRmin, (minimum heart rate) between two consecutive days. It is calculated on days 1 to 12.

[3] = test system: subjects; experiment: Example 1 dose titration study: continuous telemetry of heart rate (daily minimum heart rate, HRmin); assay type: in vivo, human
Procedure: as §1
On Day −1 (baseline), subjects undergo baseline assessments including 24 hour holter monitoring and telemetry assessments. Subjects remain on continuous telemetry, starting before breakfast on Day −1 and proceeding throughout the administration period up to Day 13 (24 hour after the last dose). Over this 13 day duration of continuous heart rate collection for each subject, one heart rate value is obtained every minute (‘minute unit heart rate’), representing the average heart rate value over that minute. The heart rate database for each subject contains approximately […] data points (13 days×24 hr×60 min).
The daily chronotropic effect is defined as the percent decrease in HRmin between two consecutive days. It is calculated on days 1 to 12.
as §2
The variation in daily minimum heart rate, HRmin (minimum of 24 hourly mean heart rates) over the course of the study is shown in FIG. 1.

[4] = test system: multiple sclerosis; conditions: humans; cited from earlier work
[5] = test system: healthy subjects; conditions: administration of 1.25 mg; cited from earlier work
[6] = 10 mg daily from Day 1 (N = 14)
[7] = DT#1 titration 0.25 to 10 mg (N = 14)
[8] = DT#2 titration (Fibonacci) 0.25 to 10 mg (N = 14)

- subjects with total number of SVEs 0-10 [2, 6]: 1 (7.1%) n (%)
- subjects with total number of SVEs 11-20 [2, 6]: 2 (14.3%) n (%)
- subjects with total number of SVEs 21-50 [2, 6]: 5 (35.7%) n (%)
- subjects with total number of SVEs >50 [2, 6]: 6 (42.9%) n (%)
- subjects with total number of VEs 0-5 [2, 6]: 6 (42.9%) n (%)
- subjects with total number of VEs 6-10 [2, 6]: 4 (28.6%) n (%)
- subjects with total number of VEs 11-30 [2, 6]: 1 (7.1%) n (%)
- subjects with total number of VEs >30 [2, 6]: 3 (21.4%) n (%)
- subjects with total number of pauses >2 secs: 0 [2, 6]: 10 (71.4%) n (%)
- subjects with total number of pauses >2 secs: 1 [2, 6]: 1 (7.1%) n (%)
- subjects with total number of pauses >2 secs: >1 [2, 6]: 3 (21.4%) n (%)
- subjects with total number of SVEs 0-10 [2, 7]: 1 (7.1%) n (%)
- subjects with total number of SVEs 11-20 [2, 7]: 3 (21.4%) n (%)
- subjects with total number of SVEs 21-50 [2, 7]: 2 (14.3%) n (%)
- subjects with total number of SVEs >50 [2, 7]: 8 (57.1%) n (%)
- subjects with total number of VEs 0-5 [2, 7]: 3 (21.4%) n (%)
- subjects with total number of VEs 6-10 [2, 7]: 5 (35.7%) n (%)
- subjects with total number of VEs 11-30 [2, 7]: 4 (28.6%) n (%)
- subjects with total number of VEs >30 [2, 7]: 2 (14.3%) n (%)
- subjects with total number of pauses >2 secs: 0 [2, 7]: 10 (71.4%) n (%)
- subjects with total number of pauses >2 secs: 1 [2, 7]: 1 (7.1%) n (%)
- subjects with total number of pauses >2 secs: >1 [2, 7]: 3 (21.4%) n (%)
- subjects with total number of SVEs 0-10 [2, 8]: 0 n (%)
- subjects with total number of SVEs 11-20 [2, 8]: 1 (7.1%) n (%)
- subjects with total number of SVEs 21-50 [2, 8]: 4 (28.6%) n (%)
- subjects with total number of SVEs >50 [2, 8]: 9 (64.3%) n (%)
- subjects with total number of VEs 0-5 [2, 8]: 3 (21.4%) n (%)
- subjects with total number of VEs 6-10 [2, 8]: 2 (14.3%) n (%)
- subjects with total number of VEs 11-30 [2, 8]: 5 (35.7%) n (%)
- subjects with total number of VEs >30 [2, 8]: 4 (28.6%) n (%)
- subjects with total number of pauses >2 secs: 0 [2, 8]: 13 (92.9%) n (%)
- subjects with total number of pauses >2 secs: 1 [2, 8]: 0 n (%)
- subjects with total number of pauses >2 secs: >1 [2, 8]: 1 (7.1%) n (%)
SMILES: CCc1cc(/C(C)=N/OCc2ccc(C3CCCCC3)c(C(F)(F)F)c2)ccc1CN1CC(C(=O)O)C1 [Compound A, 1-{4-[1-(4-cyclohexyl-3-trifluoromethyl-benzyloxyimino)-ethyl]-2-ethyl-benzyl}-azetidine-3-carboxylic acid]
- absolute lymphocyte count in the blood [1]: reduces the absolute lymphocyte count
- number of heart pauses greater than 2 seconds, comparison of regimens ([2]; second titration regimen DT#2 (Fibonacci sequence) vs the other active treatment regimens): lower number of heart pauses greater than 2 seconds
- increase in heart rate ([3]; 10 mg treatment group, from Day 1 to Day 2): approximately 5 BPM
- decrease in heart rate ([3]; 10 mg treatment group, from Day -1 to Day 1): approximately 8 BPM
- further increase in heart rate ([3]; 10 mg treatment group, from day 2 to day 4): approximately 3 BPM
- gradual decrease in heart rate per day ([3]; both titration groups (DT#1, DT#2), first seven days of the dose titration): 1-2 BPM per day
- total reduction in heart rate ([3]; both titration groups (DT#1, DT#2), over the first seven days of the dose titration): 4-5 BPM
- heart rate recovery after day 7 ([3]; both titration groups, over the next 2-3 days after the first seven days): the heart rate increased to approximately the placebo level
- dip in heart rate on initiation of the 10 mg dose after titration ([3]; titration groups, 10 mg dose initiated on Days 8 and 9, compared to preceding days): did not result in a significant dip in heart rate
- effect of dose titration regimen on negative chronotropic effect ([3]; titration regimen vs Day 1 of 10 mg dose treatment initiation): attenuates the negative chronotropic effect

SMILES: CCCCCCCCc1ccc(CCC(N)(CO)CO)cc1 [FTY720]
- efficacy in the treatment of multiple sclerosis [4]: has been demonstrated in humans
- decrease in heart rate [5]: approximately 8 beats/min (BPM)
